Experimental data from PubChem BioAssay (NCI).
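Test compounds were applied to cells in 96-well plates for 48 hours at 5 doses. At the TGI there is no net growth.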

Legend:
Assay in all cases: NCI tumour cell line growth inhibition, 48 h
PC-3 prostate = tested on: PC-3 prostate
EKVX NSCLC = tested on: EKVX NSCLC
IGROV1 ovarian = tested on: IGROV1 ovarian
HCT-15 colon = tested on: HCT-15 colon
NCI-H23 lung = tested on: NCI-H23 lung
SR leukemia = tested on: SR leukemia
HL-60(TB) leukemia = tested on: HL-60(TB) leukemia
UACC-257 melanoma = tested on: UACC-257 melanoma
SNB-19 CNS = tested on: SNB-19 CNS
KM12 colon = tested on: KM12 colon
M14 melanoma = tested on: M14 melanoma
TK-10 renal = tested on: TK-10 renal
COLO 205 colon = tested on: COLO 205 colon
ACHN renal = tested on: ACHN renal
MDA-MB-231 breast = tested on: MDA-MB-231 breast
SK-MEL-28 melanoma = tested on: SK-MEL-28 melanoma
MDA-N = tested on: MDA-N
MCF7 breast = tested on: MCF7 breast
T-47D breast = tested on: T-47D breast
NCI-H226 lung = tested on: NCI-H226 lung
NCI-H460 lung = tested on: NCI-H460 lung
SW-620 colon = tested on: SW-620 colon
K-562 leukemia = tested on: K-562 leukemia
UACC-62 melanoma = tested on: UACC-62 melanoma
U251 CNS = tested on: U251 CNS
OVCAR-4 ovarian = tested on: OVCAR-4 ovarian
HCC-2998 colon = tested on: HCC-2998 colon
RXF 393 renal = tested on: RXF 393 renal
HS 578T breast = tested on: HS 578T breast
RPMI-8226 leukemia = tested on: RPMI-8226 leukemia
A549 NSCLC = tested on: A549 NSCLC
HT29 colon = tested on: HT29 colon
SK-OV-3 ovarian = tested on: SK-OV-3 ovarian
CAKI-1 renal = tested on: CAKI-1 renal
LOX IMVI melanoma = tested on: LOX IMVI melanoma
SF-268 CNS = tested on: SF-268 CNS
SK-MEL-5 melanoma = tested on: SK-MEL-5 melanoma
HOP-92 NSCLC = tested on: HOP-92 NSCLC
NCI/ADR-RES ovarian = tested on: NCI/ADR-RES ovarian
SNB-75 CNS = tested on: SNB-75 CNS
SF-539 CNS = tested on: SF-539 CNS
HOP-62 NSCLC = tested on: HOP-62 NSCLC
UO-31 renal = tested on: UO-31 renal
DU-145 prostate = tested on: DU-145 prostate
OVCAR-3 ovarian = tested on: OVCAR-3 ovarian
MDA-MB-435 = tested on: MDA-MB-435
SF-295 CNS = tested on: SF-295 CNS
OVCAR-5 ovarian = tested on: OVCAR-5 ovarian
MOLT-4 leukemia = tested on: MOLT-4 leukemia
A498 renal = tested on: A498 renal
SK-MEL-2 melanoma = tested on: SK-MEL-2 melanoma
MALME-3M melanoma = tested on: MALME-3M melanoma
786-0 renal = tested on: 786-0 renal
CCRF-CEM leukemia = tested on: CCRF-CEM leukemia
OVCAR-8 ovarian = tested on: OVCAR-8 ovarian
HCT-116 colon = tested on: HCT-116 colon
NCI-H522 lung = tested on: NCI-H522 lung
SN12C renal = tested on: SN12C renal

## CC(C)(C)COC1C2(OCCO2)C2CCC1(C)C2(C)C (centres undefined)
PC-3 prostate
  TGI: 54.5 µM
EKVX NSCLC
  TGI: 79.9 µM
IGROV1 ovarian
  TGI: > 100 µM
HCT-15 colon
  TGI: 50 µM
NCI-H23 lung
  TGI: > 100 µM
SR leukemia
  TGI: 40.6 µM
HL-60(TB) leukemia
  TGI: 44.2 µM
UACC-257 melanoma
  TGI: 70.5 µM
SNB-19 CNS
  TGI: 41.7 µM
KM12 colon
  TGI: 42 µM
M14 melanoma
  TGI: > 100 µM
TK-10 renal
  TGI: > 100 µM
COLO 205 colon
  TGI: 91.1 µM
ACHN renal
  TGI: 42.1 µM
MDA-MB-231 breast
  TGI: > 100 µM
SK-MEL-28 melanoma
  TGI: > 100 µM
MDA-N
  TGI: > 100 µM
MCF7 breast
  TGI: 37.3 µM
T-47D breast
  TGI: 68.5 µM
NCI-H226 lung
  TGI: > 100 µM
NCI-H460 lung
  TGI: > 100 µM
SW-620 colon
  TGI: 37.9 µM
K-562 leukemia
  TGI: 35.7 µM
UACC-62 melanoma
  TGI: > 100 µM
U251 CNS
  TGI: 34.3 µM
OVCAR-4 ovarian
  TGI: > 100 µM
HCC-2998 colon
  TGI: > 100 µM
RXF 393 renal
  TGI: 36 µM
HS 578T breast
  TGI: 90.1 µM
RPMI-8226 leukemia
  TGI: 41.7 µM
A549 NSCLC
  TGI: 48 µM
HT29 colon
  TGI: 74.4 µM
SK-OV-3 ovarian
  TGI: > 100 µM
CAKI-1 renal
  TGI: > 100 µM
LOX IMVI melanoma
  TGI: 38 µM
SF-268 CNS
  TGI: > 100 µM
SK-MEL-5 melanoma
  TGI: > 100 µM
HOP-92 NSCLC
  TGI: 70.2 µM
NCI/ADR-RES ovarian
  TGI: > 100 µM
SNB-75 CNS
  TGI: 67.6 µM
SF-539 CNS
  TGI: > 100 µM
HOP-62 NSCLC
  TGI: 59.2 µM
UO-31 renal
  TGI: 65.1 µM
DU-145 prostate
  TGI: > 100 µM
OVCAR-3 ovarian
  TGI: 33.3 µM
MDA-MB-435
  TGI: > 100 µM
SF-295 CNS
  TGI: 35.2 µM
OVCAR-5 ovarian
  TGI: 73.8 µM
MOLT-4 leukemia
  TGI: 39.7 µM
A498 renal
  TGI: > 100 µM
SK-MEL-2 melanoma
  TGI: 50.2 µM
MALME-3M melanoma
  TGI: 64 µM
786-0 renal
  TGI: 34.5 µM
CCRF-CEM leukemia
  TGI: 37.8 µM
OVCAR-8 ovarian
  TGI: 55.9 µM

## CCOC(=O)C(COS(C)(=O)=O)(COS(C)(=O)=O)C(=O)OCC
PC-3 prostate
  TGI: > 100 µM
HCT-15 colon
  TGI: > 100 µM
NCI-H23 lung
  TGI: > 100 µM
SR leukemia
  TGI: > 100 µM
UACC-257 melanoma
  TGI: > 100 µM
SNB-19 CNS
  TGI: > 100 µM
KM12 colon
  TGI: > 100 µM
M14 melanoma
  TGI: > 100 µM
TK-10 renal
  TGI: > 100 µM
COLO 205 colon
  TGI: > 100 µM
ACHN renal
  TGI: > 100 µM
MDA-MB-231 breast
  TGI: > 100 µM
SK-MEL-28 melanoma
  TGI: > 100 µM
MDA-N
  TGI: > 100 µM
MCF7 breast
  TGI: > 100 µM
T-47D breast
  TGI: > 100 µM
NCI-H226 lung
  TGI: > 100 µM
NCI-H460 lung
  TGI: > 100 µM
SW-620 colon
  TGI: > 100 µM
K-562 leukemia
  TGI: > 100 µM
U251 CNS
  TGI: > 100 µM
OVCAR-4 ovarian
  TGI: > 100 µM
HCC-2998 colon
  TGI: > 100 µM
RXF 393 renal
  TGI: > 100 µM
HCT-116 colon
  TGI: > 100 µM
HS 578T breast
  TGI: > 100 µM
A549 NSCLC
  TGI: > 100 µM
NCI-H522 lung
  TGI: > 100 µM
HT29 colon
  TGI: > 100 µM
SK-OV-3 ovarian
  TGI: > 100 µM
LOX IMVI melanoma
  TGI: > 100 µM
SF-268 CNS
  TGI: > 100 µM
SK-MEL-5 melanoma
  TGI: > 100 µM
HOP-92 NSCLC
  TGI: > 100 µM
NCI/ADR-RES ovarian
  TGI: > 100 µM
SNB-75 CNS
  TGI: > 100 µM
SN12C renal
  TGI: > 100 µM
UO-31 renal
  TGI: > 100 µM
DU-145 prostate
  TGI: > 100 µM
OVCAR-3 ovarian
  TGI: > 100 µM
MDA-MB-435
  TGI: > 100 µM
SF-295 CNS
  TGI: > 100 µM
MOLT-4 leukemia
  TGI: > 100 µM
A498 renal
  TGI: > 100 µM
CCRF-CEM leukemia
  TGI: > 100 µM
OVCAR-8 ovarian
  TGI: > 100 µM

## Cc1nnc2n1-c1ccccc1-c1[nH]c3ccccc3c1C2
PC-3 prostate
  TGI: > 100 µM
EKVX NSCLC
  TGI: > 100 µM
IGROV1 ovarian
  TGI: > 100 µM
NCI-H23 lung
  TGI: > 100 µM
SR leukemia
  TGI: > 100 µM
HL-60(TB) leukemia
  TGI: 70.8 µM
UACC-257 melanoma
  TGI: > 100 µM
SNB-19 CNS
  TGI: > 100 µM
KM12 colon
  TGI: > 100 µM
M14 melanoma
  TGI: > 100 µM
TK-10 renal
  TGI: > 100 µM
COLO 205 colon
  TGI: > 100 µM
ACHN renal
  TGI: > 100 µM
MDA-MB-231 breast
  TGI: > 100 µM
SK-MEL-28 melanoma
  TGI: > 100 µM
MDA-N
  TGI: > 100 µM
MCF7 breast
  TGI: > 100 µM
T-47D breast
  TGI: > 100 µM
NCI-H226 lung
  TGI: > 100 µM
NCI-H460 lung
  TGI: > 100 µM
SW-620 colon
  TGI: > 100 µM
K-562 leukemia
  TGI: > 100 µM
UACC-62 melanoma
  TGI: > 100 µM
OVCAR-4 ovarian
  TGI: > 100 µM
RXF 393 renal
  TGI: > 100 µM
HCT-116 colon
  TGI: > 100 µM
HS 578T breast
  TGI: > 100 µM
RPMI-8226 leukemia
  TGI: > 100 µM
A549 NSCLC
  TGI: > 100 µM
HT29 colon
  TGI: > 100 µM
SK-OV-3 ovarian
  TGI: > 100 µM
CAKI-1 renal
  TGI: > 100 µM
LOX IMVI melanoma
  TGI: > 100 µM
SF-268 CNS
  TGI: > 100 µM
SK-MEL-5 melanoma
  TGI: > 100 µM
HOP-92 NSCLC
  TGI: > 100 µM
NCI/ADR-RES ovarian
  TGI: > 100 µM
SNB-75 CNS
  TGI: 61.7 µM
SN12C renal
  TGI: > 100 µM
SF-539 CNS
  TGI: > 100 µM
HOP-62 NSCLC
  TGI: > 100 µM
UO-31 renal
  TGI: > 100 µM
DU-145 prostate
  TGI: > 100 µM
OVCAR-3 ovarian
  TGI: > 100 µM
MDA-MB-435
  TGI: > 100 µM
SF-295 CNS
  TGI: > 100 µM
OVCAR-5 ovarian
  TGI: > 100 µM
MOLT-4 leukemia
  TGI: > 100 µM
A498 renal
  TGI: 78.2 µM
MALME-3M melanoma
  TGI: > 100 µM
786-0 renal
  TGI: > 100 µM
CCRF-CEM leukemia
  TGI: > 100 µM
OVCAR-8 ovarian
  TGI: > 100 µM
